Source: publication PMC9085648, “Synthesis of novel genistein amino acid derivatives and investigation on their interactions with bovine serum albumin by spectroscopy and molecular docking” (RSC Advances, 2018)
Like-named read-outs stand apart in the source and are kept apart here.

Assays:
Hela = assay: MTT cytotoxicity assay, Hela; type: cell-based; conditions: Homo sapiens, 48 h, mean ± SD of three experiments, read-out: Cancer cell lines IC50, Hela
Description: (§1) All cell lines were purchased from the Cell Bank of Type Culture Collection of Chinese Academy of Sciences (Shanghai, China). MGC-803 was routinely cultured in RPMI-1640 medium containing 10% FBS and 1% penicillin/streptomycin. MCF-7, HCT-116 and Hela were routinely cultured in medium DMEM/high glucose containing 10% FBS and 1% penicillin/streptomycin. All cell lines were incubated in culture at 37 °C in air with 5% CO2 for 24 h.
(§2) All cell lines were plated in 96-well plates, and each well contains 4000 cells in 100 μL culture medium. Then the cells were treated with genistein or its amino acid derivatives dissolved in DMSO at different doses in a CO2 incubator at 37 °C for 48 h, and DMSO was used as vehicle control. After removing the culture medium, 10 μL MTT and 90 μL blank culture medium were added to each well and incubated for additional 4 h at 37 °C. The absorbance was determined by a microplate-reader at 490 nm.

MCF-7 = assay: MTT cytotoxicity assay, MCF-7; type: cell-based; conditions: Homo sapiens, MCF7, 48 h, mean ± SD of three experiments, read-out: Cancer cell lines IC50, MCF-7
Description: as §1, §2

HCT-116 = assay: MTT cytotoxicity assay, HCT-116; type: cell-based; conditions: Homo sapiens, 48 h, mean ± SD of three experiments, read-out: Cancer cell lines IC50, HCT-116
Description: as §1, §2

MGC-803 = assay: MTT cytotoxicity assay, MGC-803; type: cell-based; conditions: Homo sapiens, 48 h, mean ± SD of three experiments, read-out: Cancer cell lines IC50, MGC-803
Description: as §1, §2

BSA [1] = target: T1, BSA (Bos taurus, UniProt P02769); assay: Fluorescence quenching of BSA (Stern-Volmer, double-log, van't Hoff); type: binding, bovine; conditions: for K SV (quenching constant): BSA 1 μM, pH 7.4; for ΔGexp: ΔGexp = ΔH − TΔS; for K q (quenching rate constant): τ0 = 10^−8 s; for Kd: read-out: K b (binding constant) (converted)
T1 construct: purchased Aladdin's Reagent Co., Ltd. (Shanghai, China)
T1 sequence (P02769 25-607): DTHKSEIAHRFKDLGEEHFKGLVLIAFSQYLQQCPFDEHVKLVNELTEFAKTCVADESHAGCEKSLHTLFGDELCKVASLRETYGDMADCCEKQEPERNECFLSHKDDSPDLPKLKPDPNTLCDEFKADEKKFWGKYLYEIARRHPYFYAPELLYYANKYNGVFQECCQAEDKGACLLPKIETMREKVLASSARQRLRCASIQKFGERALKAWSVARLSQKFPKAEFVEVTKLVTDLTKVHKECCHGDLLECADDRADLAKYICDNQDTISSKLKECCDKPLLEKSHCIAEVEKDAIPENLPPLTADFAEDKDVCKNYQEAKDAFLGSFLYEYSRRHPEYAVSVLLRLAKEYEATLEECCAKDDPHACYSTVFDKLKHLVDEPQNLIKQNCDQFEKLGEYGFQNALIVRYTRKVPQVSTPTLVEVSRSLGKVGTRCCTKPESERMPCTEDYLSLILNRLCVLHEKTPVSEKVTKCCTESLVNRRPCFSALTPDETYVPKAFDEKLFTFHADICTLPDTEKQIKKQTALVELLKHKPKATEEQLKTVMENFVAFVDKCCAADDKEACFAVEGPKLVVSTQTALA
Description: Fluorescence spectra were carried on a F-7000 fluorescence spectrophotometer (Japan) fitted out with a 1.0 cm quartz dish. The excitation wavelength was set at 280 nm with 5/5 nm slit widths, while the emission wavelength ranged from 290 nm to 500 nm at different temperatures. The BSA solution (1 μM) was titrated with genistein and its amino acid derivatives 4a–4d for three times. The final concentrations of genistein and 4a–4d were (0.0, 6.4, 12.8, 19.2, 25.6, 32, 38.4, 44.8, and 51.2) μM.
The Stern–Volmer equation is often applied to reveal the fluorescence quenching mechanism:[19]1 [drawing 1] where F0 and F are the fluorescence intensities of complex […], respectively.[18] [Q] denotes the concentration of quencher. Ksv and Kq are quenching constant and quenching rate constant of BSA, respectively.[20]τ0 is the lifetime of fluorophore in the absence of genistein, 4a–4d and equals to 10^−8 s.[21] […] It can be observed that the Ksv values decreased gradually with rise in temperature in Table 2. Furthermore, Kq values were in the order of 10^12, which were larger than the maximum diffusion collisional rate constant (2.0 × 10^10 M^−1 s^−1).[22]
Double-logarithmic eqn (2) is often used to explore the binding parameters of static quenching, such as binding constant (Kb) and binding sites (n):[23]2 [drawing 2]
To clarify the binding forces between genistein, 4a–4d and BSA, the thermodynamic parameters were studied via the van't Hoff equations:[25]3 [drawing 3] 4 ΔG = −RT ln K = ΔH − TΔSwhere T denotes the experimental temperature, K denotes the binding constant at the corresponding temperature, R is the gas constant.[26] According to Ross and Subramanian's previous research,[27] the characteristic for van der Waals interactions or/and hydrogen bonding is ΔH < 0 and ΔS < 0, for hydrophobic interaction is ΔH > 0 and ΔS > 0, and for electrostatic interactions is ΔH ≈ 0 and ΔS > 0.[28] The calculation results of the thermodynamic parameters were recorded in Table 3.

BSA [2] = target: T1, BSA; assay: Three-dimensional fluorescence spectroscopy of BSA; type: binding, bovine
Description: The 3D fluorescence spectra of genistein and compounds 4a–4d were recorded with scanning excitation wavelength ranged from 200 nm to 300 nm with 10 nm interval, and emission wavelength ranged from 290 nm to 470 nm with 5 nm interval for three times. Other parameters were the same as Section 2.4.1.

[3] = Peak 1, [BSA]:[compound] = 1:3, 298 K
[4] = Peak 2, [BSA]:[compound] = 1:3, 298 K
[5] = Peak a (Rayleigh scattering), [BSA]:[compound] = 1:3, 298 K

O=c1c(-c2ccc(O)cc2)coc2cc(O)cc(O)c12 [Genistein]
IC50 (Hela): > 100000 nM | IC50 (MCF-7): > 100000 nM | IC50 (HCT-116): > 100000 nM | IC50 (MGC-803): > 100000 nM | n (binding sites) (BSA [1]; T 298 K): 1.42 | K SV (quenching constant) (BSA [1]; T 298 K): 6.2416 ± 0.0984 10^4 M^−1 | ΔGexp (BSA [1]; T 298 K): -37.69 kJ/M | K q (quenching rate constant) (BSA [1]; T 298 K): 6.2416 10^12 M^−1 s^−1 | Kd (BSA [1]; T 298 K): 256 nM | n (binding sites) (BSA [1]; T 306 K): 1.39 | K SV (quenching constant) (BSA [1]; T 306 K): 5.3472 ± 0.1242 10^4 M^−1 | ΔGexp (BSA [1]; T 306 K): -37.11 kJ/M | K q (quenching rate constant) (BSA [1]; T 306 K): 5.3472 10^12 M^−1 s^−1 | Kd (BSA [1]; T 306 K): 415 nM | n (binding sites) (BSA [1]; T 310 K): 1.37 | K SV (quenching constant) (BSA [1]; T 310 K): 4.3285 ± 0.1005 10^4 M^−1 | ΔGexp (BSA [1]; T 310 K): -36.83 kJ/M | K q (quenching rate constant) (BSA [1]; T 310 K): 4.3285 10^12 M^−1 s^−1 | Kd (BSA [1]; T 310 K): 671 nM | ΔH (BSA [1]; van't Hoff, 298-310 K): -59.09 kJ/M | ΔS (BSA [1]; van't Hoff, 298-310 K): −71.83 J K^−1 M^−1 | 3D fluorescence intensity (BSA [2]; [3]): 259.2 a.u | 3D fluorescence peak position λex/λem (BSA [2]; [3]): 230/355 | 3D fluorescence intensity (BSA [2]; [4]): 333.2 a.u | 3D fluorescence peak position λex/λem (BSA [2]; [4]): 280/355 | 3D fluorescence intensity (BSA [2]; [5]): 159.6 a.u | 3D fluorescence peak position λex/λem (BSA [2]; [5]): 290/295
